Data on three molecules can be found in publication PMC5766608, “Target engagement imaging of PARP inhibitors in small-cell lung cancer” (Nature Communications, 2018).

A word on the inhibition: it is how much of the control response was suppressed. A lower inhibition goes with a response near the control.

“Also recorded” adds a separate entry of the source.

The test system of one experiment is JHU-LX22 cells. Put plainly: Cytotoxicity, Alamar Blue assay. It is filed as cell-based, human. As to conditions: 24-96 h. As for the experimental part:
[…]. Cells were plated in 96-well plates (black, clear-bottom, Corning Incorporated) at a density of 5,000 cells/well and allowed them to attach for 24 h. All compounds were prepared as 10 mM stock solutions in DMSO and further diluted in media. Cells were treated with 0, 2, 5, and 10 µM (final solutions containing 1% DMSO) of each compound for 24, 48, 72 and 96 h. Then, media was removed and Alamar Blue reagent was added to each well. Plates were incubated at 37 °C for 4 h under protection from direct light. Fluorescence was read (bottom-read mode) using an excitation wavelength of 570 nm and an emission wavelength of 585 nm on a SpectraMax M5 microplate reader (Molecular Devices, Sunnyvale, CA, USA). The average reading values were analyzed by subtracting the background readings (wells with Alamar Blue but without cells) and compared against the untreated controls of each plate (defined as 100% viability) to determine the percentage of living cells. The experiment was carried out in three biological replicates with four parallels of each compound.
Supplementary Figure 9 | In vitro toxicity of the tested PARP inhibitors and imaging tracers on JHU-LX22 cells. (a) Assessment of viable cell population during flow cytometry after a 2 hour incubation time of several PARP inhibitors at concentrations between 0 and 5 µM. (b) Cell viability determination using Alamar Blue assays. Cells were incubated with 0, 0.2, 2, 5 or 10 µM of each compound for 24, 48, 72 or 96 h and cell viability was assessed using the Alamar Blue assay. (c) IC values derived from Alamar Blue assays at 72 h and 96 h.
Viability data represent means from three independent experiments, each with four parallels of each sample. Error bars represent the standard error (SEM). […]
Background: The colour change of resazurin is a common sign of viable cells or microbes.

The target of a further experiment is T1, PARP2 (Homo sapiens, UniProt Q9UGN5).
T1 construct: purchased BPS Bioscience, San Diego, CA
Kind of experiment: PARP family enzyme activity inhibition screening (BPS Bioscience). The class given is biochemical. Particulars: 100 nM inhibitor. As for the experimental part:
(§1) Fig. 1 Properties of PARP inhibitors. a Structures of 5 clinical therapeutic PARP inhibitors and the 2 PARP imaging agents. b Heatmap visualizing enzymatic activity screening of 10 small molecules against 12 PARP enzymes at 100 nM concentration (for additional concentrations, see Supplementary Fig. 1)
(§2) Assay was performed by BPS Bioscience, San Diego, CA. 100 µM DMSO solutions of each inhibitor were provided, and the assay was conducted after dilution to 100, 50, or 10 nM. […] Data was reported by BPS as % Enzyme Activity. Triplicates were combined to get a mean ± SD, and these were grouped and plotted onto a heatmap using Prism 7.
(§3) Supplementary Figure 1 | PARP enzyme family binding assays at additional concentrations.
(§4) histone substrate and biotin-labeled NAD+ at 100 nM (Fig. 1b), 50 nM (left) and 10 nM (right) for
(§5) each inhibitor and each enzyme.

The target in another experiment is T2, PARP3 (Homo sapiens, UniProt Q9Y6F1).
T2 construct: purchased BPS Bioscience, San Diego, CA
T2 sequence (Q9Y6F1 1-533): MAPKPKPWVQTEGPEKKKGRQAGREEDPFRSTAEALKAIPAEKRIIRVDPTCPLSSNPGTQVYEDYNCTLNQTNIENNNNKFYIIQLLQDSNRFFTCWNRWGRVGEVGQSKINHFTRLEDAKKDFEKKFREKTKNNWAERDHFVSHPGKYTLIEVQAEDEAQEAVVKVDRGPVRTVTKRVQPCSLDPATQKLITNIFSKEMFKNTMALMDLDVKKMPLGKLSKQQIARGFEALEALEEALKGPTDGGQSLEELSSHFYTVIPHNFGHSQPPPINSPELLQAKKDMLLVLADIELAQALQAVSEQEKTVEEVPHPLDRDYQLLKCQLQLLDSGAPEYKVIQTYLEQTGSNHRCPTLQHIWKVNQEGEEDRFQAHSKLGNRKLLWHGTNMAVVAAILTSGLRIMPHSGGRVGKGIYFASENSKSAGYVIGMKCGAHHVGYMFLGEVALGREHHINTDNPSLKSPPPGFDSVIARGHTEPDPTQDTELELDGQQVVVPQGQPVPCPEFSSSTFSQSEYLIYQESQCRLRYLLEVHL
The experiment is described as above. The class given is biochemical. Particulars: 100 nM inhibitor. As for the experimental part: as §1, §2, §3, §4, §5

The target of another experiment is T3, PARP1 (Homo sapiens, UniProt P09874).
T3 construct: purchased BPS Bioscience, San Diego, CA
The description is as above. It is filed as biochemical. As to conditions: 100 nM inhibitor. As for the experimental part:
as §1, §2, §3, §4, §5

Another experiment concerns PARP1/2. Kind of experiment: Blocking of PARPi-FL uptake by PARP inhibitors (confocal microscopy, flow cytometry). As to conditions: JHU-LX22 cells. It is filed as cell-based, human. As for the experimental part:
Cells were then treated with fluorescent imaging agent PARPi-FL and either imaged via confocal microscopy or measured via flow cytometry. […] Then, cells were trypsinized, subjected to flow cytometry and analyzed for the relative PARPi-FL fluorescence signal. […] Error bars represent the SD of three independent experiments with three parallels each
We conducted confocal laser scanning microscopy to visualize the extent of intracellular blocking of PARPi-FL uptake by different PARPi. […] PARPi-FL was removed and cells were washed in fresh medium for 10 min. Next, cells were treated with 4% Paraformaldehyde (PFA) for 8 min on ice to ensure fixation. […] PARPi-FL intensity was determined by measuring the PARPi-FL fluorescence intensity in all nuclei, which were thresholded using Hoechst staining.
After the respective treatment/staining, which is described below for the different experiments, cells were washed in PBS, trypsinized, washed with flow buffer (1% BSA (w/v) in PBS), transferred to 5 mL flow cytometry tubes through the 40 µm cell strainer cap and left on ice until measurement in the flow cytometer (Fortessa II). Raw data were processed in FlowJo software in order to calculate PARPi-FL uptake per cell. Dead cells were excluded by eliminating DAPI positive cells from the analysis (Supplementary Fig. 8). Cell clumps and debris were eliminated using the corresponding gates (forward and side scatter) for the unstained cell population. PARPi-FL fluorescence was imaged in the FITC channel against side scatter (area).
Controls (cells incubated with medium instead of a PARP inhibitor) served as reference value and their PARPi-FL signal was defined as 100%.
To quantify the extent of blocking of PARPi-FL uptake by different PARPi, we quantified the intracellular PARPi-FL uptake in JHU-LX22 cells after incubation with PARP inhibitors.
A general note: A flow cytometer gives signals particle by particle.

T1 sequence (Q9UGN5 whole entry): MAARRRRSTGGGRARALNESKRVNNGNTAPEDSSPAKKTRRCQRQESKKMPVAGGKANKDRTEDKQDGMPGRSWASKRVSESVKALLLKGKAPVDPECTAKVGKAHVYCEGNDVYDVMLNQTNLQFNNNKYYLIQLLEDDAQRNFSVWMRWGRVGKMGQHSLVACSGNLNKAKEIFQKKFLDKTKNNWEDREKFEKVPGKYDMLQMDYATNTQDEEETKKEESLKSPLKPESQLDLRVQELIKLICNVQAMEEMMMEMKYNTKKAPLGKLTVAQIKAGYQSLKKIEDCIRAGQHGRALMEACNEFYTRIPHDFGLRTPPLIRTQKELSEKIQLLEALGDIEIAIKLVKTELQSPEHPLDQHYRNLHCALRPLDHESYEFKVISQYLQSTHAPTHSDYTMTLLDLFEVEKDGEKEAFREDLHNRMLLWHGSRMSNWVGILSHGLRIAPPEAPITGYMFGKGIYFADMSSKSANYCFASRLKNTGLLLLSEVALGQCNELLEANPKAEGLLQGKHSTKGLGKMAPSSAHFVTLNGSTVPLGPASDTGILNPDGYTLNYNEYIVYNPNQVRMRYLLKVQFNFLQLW
T3 sequence (P09874 whole entry): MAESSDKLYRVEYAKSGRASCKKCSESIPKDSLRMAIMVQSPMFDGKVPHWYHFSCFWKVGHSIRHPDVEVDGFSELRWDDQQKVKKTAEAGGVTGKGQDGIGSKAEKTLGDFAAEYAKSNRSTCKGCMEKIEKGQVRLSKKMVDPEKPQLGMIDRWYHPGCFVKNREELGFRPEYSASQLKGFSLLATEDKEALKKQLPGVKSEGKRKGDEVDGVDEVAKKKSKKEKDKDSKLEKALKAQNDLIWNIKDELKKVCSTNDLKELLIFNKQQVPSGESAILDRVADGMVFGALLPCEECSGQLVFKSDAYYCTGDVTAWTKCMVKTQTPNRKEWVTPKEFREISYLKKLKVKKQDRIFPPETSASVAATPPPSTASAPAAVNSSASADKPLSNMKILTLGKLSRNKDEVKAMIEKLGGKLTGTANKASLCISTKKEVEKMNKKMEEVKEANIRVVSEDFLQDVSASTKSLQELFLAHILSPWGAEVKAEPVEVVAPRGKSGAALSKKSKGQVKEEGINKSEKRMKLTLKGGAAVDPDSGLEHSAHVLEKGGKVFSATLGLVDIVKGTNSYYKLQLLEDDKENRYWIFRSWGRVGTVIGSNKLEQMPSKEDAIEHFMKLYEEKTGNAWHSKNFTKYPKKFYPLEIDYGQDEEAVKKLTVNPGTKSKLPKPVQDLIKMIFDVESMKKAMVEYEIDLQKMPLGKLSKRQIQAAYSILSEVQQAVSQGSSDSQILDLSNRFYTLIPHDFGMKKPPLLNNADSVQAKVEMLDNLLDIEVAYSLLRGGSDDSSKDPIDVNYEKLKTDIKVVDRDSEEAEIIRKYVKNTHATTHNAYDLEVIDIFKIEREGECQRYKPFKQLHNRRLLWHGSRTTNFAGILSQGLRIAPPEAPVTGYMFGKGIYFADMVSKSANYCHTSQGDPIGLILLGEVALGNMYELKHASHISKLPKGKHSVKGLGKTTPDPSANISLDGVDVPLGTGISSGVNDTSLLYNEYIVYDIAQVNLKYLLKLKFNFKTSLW

For `CC1=CC(C)=[N+]2C1=Cc1ccc(CCC(=O)N3CCN(C(=O)c4cc(Cc5n[nH]c(=O)c6ccccc56)ccc4F)CC3)n1[B-]2(F)F` [PARPi-FL], in the experiment on JHU-LX22 cells, the “Effect on JHU-LX22 cell viability, in words” value (“Effect” for short) is on record as “very similar effects on JHU-LX22 cell viability as other inhibitors; also recorded: very similar effects on JHU-LX22 cell viability as olaparib”. The inhibition at 0.1 µM against PARP2 is more than 90%; against PARP3, not above 30%; on PARP1 it was more than 90%.
As for `Cn1ncnc1[C@H]1c2n[nH]c(=O)c3cc(F)cc(c23)N[C@@H]1c1ccc(F)cc1` [Talazoparib, (8S,9R)-5-Fluoro-8-(4-fluorophenyl)-9-(1-methyl-1H-1,2,4-triazol-5-yl)-2,7,8,9-tetrahydro-3H-pyrido[4,3,2-de]phthalazin-3-one], the “Effect” value in the experiment with JHU-LX22 cells was “most sensitive”. Besides, the “Blocking of PARPi-FL uptake / target engagement, in words” value with PARP1/2 (pretreatment with inhibitor, then PARPi-FL) is listed as “most complete target engagement”.
Regarding `O=C(c1ccc(F)cc1)N1CCN(C(=O)c2cc(Cc3n[nH]c(=O)c4ccccc34)ccc2F)CC1` [^19F-PARPi], the “Effect” value with JHU-LX22 cells was “very similar effects on JHU-LX22 cell viability as other inhibitors; also recorded: very similar effects on JHU-LX22 cell viability as olaparib”. Also, at PARP2, the “Inhibition of PARP2 enzyme activity” value was more than 90%. Moreover, the “Inhibition of PARP3 enzyme activity” value on PARP3 is reported as not above 30%. For the same molecule, on PARP1, the “Inhibition of PARP1 enzyme activity” value is recorded as more than 90%. Besides, the “Blocking of PARPi-FL uptake” value with PARP1/2 (pretreatment with PARP inhibitor 25 min, then PARPi-FL 15 min) is on record as “more than 50%”.
